Data taken from patent US20100279990A1, “ANTIPROLIFERATIVE COMPOUNDS, COMPOSITIONS AND METHODS OF USE” (RAMOT AT TEL-AVIV UNIVERSITY LTD., priority 2006, published 2010).

What was measured:
[1] = system: PAXF 1657L; assay: Monolayer Assay, PI: PAXF 1657L; type: cell-based, human
Description: (§1) This example illustrates cell proliferation data in the form of IC50, IC70 and IC90 values obtained by exposure of human cancer cell-lines to compound (Ia). […].

[2] = system: CEM/C1 cell-lines (camptothecin resistant human T-cell leukemia); assay: Viability of CEM/C1 cell-line, alamar blue; type: cell-based; conditions: 1-30 μM
Description: This cell-line is a camptothecin (CPT) resistant derivative of the human T-cell leukemia purchased from ATCC (USA). […] The results are depicted in FIG. 14. Each point represents the mean+/−SEM of 4 determinations.

[3] = system: MAXF 401NL; assay: Monolayer Assay, PI: MAXF 401NL (Breast); type: cell-based, human
Description: as §1

[4] = system: OVXF 899L; assay: Monolayer Assay, PI: OVXF 899L (Ovarian Cancer); type: cell-based, human
Description: as §1

[5] = system: CNXF 498NL; assay: Monolayer Assay, PI: CNXF 498NL; type: cell-based, human
Description: as §1

[6] = system: PAXF PANC1; assay: Monolayer Assay, PI: PAXF PANC1; type: cell-based, human
Description: as §1

[7] = system: RXF 944L; assay: Monolayer Assay, PI: RXF 944L (Renal); type: cell-based, human
Description: as §1

[8] = system: MEXF 276L; assay: Monolayer Assay, PI: MEXF 276L (Melanoma); type: cell-based, human
Description: as §1

[9] = system: BXF T24; assay: Monolayer Assay, PI: BXF T24 (Bladder); type: cell-based, human
Description: as §1

[10] = system: human colon carcinoma cells (HT29); assay: cells
[11] = system: UXF 1138L; assay: Monolayer Assay, PI: UXF 1138L (Uterus Body); type: cell-based, human
Description: as §1

[12] = system: XCL A431; assay: Monolayer Assay, PI: XCL A431; type: cell-based, human
Description: as §1

[13] = system: Caspase 3 activity of LS1034 human colon MDR carcinoma cells; assay: Caspase-3 activity in LS1034 human colon MDR carcinoma cells; type: cell-based; conditions: 10 or 20 μM, 4 hr after exposure
Protocol: Caspase 3 activity was measured by an enzymatic fluorimetric method using a fluorigenic substrate (Ac-DEVD-AMC), which produces blue fluorescence detected at 360 nm wavelength. […] When AMC is cleaved from the substrate by caspase-3, and caspase-3-like enzymes, it produces a yellow-green fluorescence, which can be monitored by a fluorimeter at 460 nm. The amount of yellow green fluorescence is proportional to the activity of caspase-3 in the cell extract sample.
Whole cell lysate was added to a buffer containing 100 μM peptide substrate, 100 mM HEPES, 10% glycerol, 1 mM EDTA and 10 mM dithiothreitol. Measurements were taken every 5 min for 80 min. These experiments were also monitored in the presence of a specific caspase-3 inhibitor, DEVD-AMC-CHO, which was added after 45 or 60 min to the reaction mixture, to ascertain the specificity of the enzyme.

[14] = system: HNXF 536L; assay: Monolayer Assay, PI: HNXF 536L; type: cell-based, human
Description: as §1

For `CN[C@H]1CC[C@@H](c2ccc(Cl)c(Cl)c2)c2ccc(C#CCCCO)cc21` [compound (Ia), (1S-cis)-4-(3,4-dichlorophenyl)-7-(5-hydroxy-1-pentyn-1-yl)-1,2,3,4-tetrahydro-N-methyl-1-naphthalenamine hydroiodide], the “Test/Control (%)” value ([1]; 2.3 μg/ml) was 92%, the Test/Control activity class ([1]; 2.3 μg/ml) was “− (− (T/C = 50))” and the “Test/Control (%)” value ([1]; 7.5 μg/ml) was 40%. For the same molecule, the Test/Control activity class ([1]; 7.5 μg/ml) was “+ (+ (30 <= T/C < 50))”, the “Test/Control (%)” value ([1]; 23. μg/ml) was 6% and the Test/Control activity class ([1]; 23. μg/ml) was “+++ (+++ (T/C < 10))”. The “Test/Control (%)” value ([1]; 75. μg/ml) was 5%, the Test/Control activity class ([1]; 75. μg/ml) was “+++ (+++ (T/C < 10))” and the “Test/Control (%)” value ([1]; .75 μg/ml) was 96%. The Test/Control activity class ([1]; .75 μg/ml) was “− (− (T/C = 50))”, the IC50 [2] was 8.9 µM and the “Test/Control (%)” value ([3]; 2.3 μg/ml) was 70%. For the same molecule, the Test/Control activity class ([3]; 2.3 μg/ml) was “− (− (T/C = 50))”, the “Test/Control (%)” value ([3]; 7.5 μg/ml) was 9% and the Test/Control activity class ([3]; 7.5 μg/ml) was “+++ (+++ (T/C < 10))”. The “Test/Control (%)” value ([3]; 23. μg/ml) was 3%, the Test/Control activity class ([3]; 23. μg/ml) was “+++ (+++ (T/C < 10))” and the “Test/Control (%)” value ([3]; 75. μg/ml) was 3%. The Test/Control activity class ([3]; 75. μg/ml) was “+++ (+++ (T/C < 10))”, the “Test/Control (%)” value ([3]; .75 μg/ml) was 103% and the Test/Control activity class ([3]; .75 μg/ml) was “− (− (T/C = 50))”. For the same molecule, the “Test/Control (%)” value ([4]; 2.3 μg/ml) was 94%, the Test/Control activity class ([4]; 2.3 μg/ml) was “− (− (T/C = 50))” and the “Test/Control (%)” value ([4]; 7.5 μg/ml) was 10%. The Test/Control activity class ([4]; 7.5 μg/ml) was “++ (++ (10 <= T/C < 30))”, the “Test/Control (%)” value ([4]; 23. μg/ml) was 3% and the Test/Control activity class ([4]; 23. μg/ml) was “+++ (+++ (T/C < 10))”. For the same molecule, the “Test/Control (%)” value ([4]; 75. μg/ml) was 4%, the Test/Control activity class ([4]; 75. μg/ml) was “+++ (+++ (T/C < 10))” and the “Test/Control (%)” value ([4]; .75 μg/ml) was 100%. For the same molecule, the Test/Control activity class ([4]; .75 μg/ml) was “− (− (T/C = 50))”, the “Test/Control (%)” value ([5]; 2.3 μg/ml) was 101% and the Test/Control activity class ([5]; 2.3 μg/ml) was “− (− (T/C = 50))”. For the same molecule, the “Test/Control (%)” value ([5]; 7.5 μg/ml) was 5%, the Test/Control activity class ([5]; 7.5 μg/ml) was “+++ (+++ (T/C < 10))” and the “Test/Control (%)” value ([5]; 23. μg/ml) was 3%. For the same molecule, the Test/Control activity class ([5]; 23. μg/ml) was “+++ (+++ (T/C < 10))”, the “Test/Control (%)” value ([5]; 75. μg/ml) was 1% and the Test/Control activity class ([5]; 75. μg/ml) was “+++ (+++ (T/C < 10))”. For the same molecule, the “Test/Control (%)” value ([5]; .75 μg/ml) was 97%, the Test/Control activity class ([5]; .75 μg/ml) was “− (− (T/C = 50))” and the “Test/Control (%)” value ([6]; 2.3 μg/ml) was 98%. The Test/Control activity class ([6]; 2.3 μg/ml) was “− (− (T/C = 50))”, the “Test/Control (%)” value ([6]; 7.5 μg/ml) was 33% and the Test/Control activity class ([6]; 7.5 μg/ml) was “+ (+ (30 <= T/C < 50))”. For the same molecule, the “Test/Control (%)” value ([6]; 23. μg/ml) was 3%, the Test/Control activity class ([6]; 23. μg/ml) was “+++ (+++ (T/C < 10))” and the “Test/Control (%)” value ([6]; 75. μg/ml) was 4%. The Test/Control activity class ([6]; 75. μg/ml) was “+++ (+++ (T/C < 10))”, the “Test/Control (%)” value ([6]; .75 μg/ml) was 105% and the Test/Control activity class ([6]; .75 μg/ml) was “− (− (T/C = 50))”. The “Test/Control (%)” value ([7]; 2.3 μg/ml) was 103%, the Test/Control activity class ([7]; 2.3 μg/ml) was “− (− (T/C = 50))” and the “Test/Control (%)” value ([7]; 7.5 μg/ml) was 9%. For the same molecule, the Test/Control activity class ([7]; 7.5 μg/ml) was “+++ (+++ (T/C < 10))”, the “Test/Control (%)” value ([7]; 23. μg/ml) was 3% and the Test/Control activity class ([7]; 23. μg/ml) was “+++ (+++ (T/C < 10))”. For the same molecule, the “Test/Control (%)” value ([7]; 75. μg/ml) was 3%, the Test/Control activity class ([7]; 75. μg/ml) was “+++ (+++ (T/C < 10))” and the “Test/Control (%)” value ([7]; .75 μg/ml) was 94%. The Test/Control activity class ([7]; .75 μg/ml) was “− (− (T/C = 50))”, the “Test/Control (%)” value ([8]; 2.3 μg/ml) was 88% and the Test/Control activity class ([8]; 2.3 μg/ml) was “− (− (T/C = 50))”. The “Test/Control (%)” value ([8]; 7.5 μg/ml) was 30%, the Test/Control activity class ([8]; 7.5 μg/ml) was “+ (+ (30 <= T/C < 50))” and the “Test/Control (%)” value ([8]; 23. μg/ml) was 4%. For the same molecule, the Test/Control activity class ([8]; 23. μg/ml) was “+++ (+++ (T/C < 10))”, the “Test/Control (%)” value ([8]; 75. μg/ml) was 5% and the Test/Control activity class ([8]; 75. μg/ml) was “+++ (+++ (T/C < 10))”. For the same molecule, the “Test/Control (%)” value ([8]; .75 μg/ml) was 95%, the Test/Control activity class ([8]; .75 μg/ml) was “− (− (T/C = 50))” and the “Test/Control (%)” value ([9]; 2.3 μg/ml) was 93%. The Test/Control activity class ([9]; 2.3 μg/ml) was “− (− (T/C = 50))”, the “Test/Control (%)” value ([9]; 7.5 μg/ml) was 53% and the Test/Control activity class ([9]; 7.5 μg/ml) was “− (− (T/C = 50))”. The “Test/Control (%)” value ([9]; 23. μg/ml) was 2%, the Test/Control activity class ([9]; 23. μg/ml) was “+++ (+++ (T/C < 10))” and the “Test/Control (%)” value ([9]; 75. μg/ml) was 2%. The Test/Control activity class ([9]; 75. μg/ml) was “+++ (+++ (T/C < 10))”, the “Test/Control (%)” value ([9]; .75 μg/ml) was 88% and the Test/Control activity class ([9]; .75 μg/ml) was “− (− (T/C = 50))”. For the same molecule, the IC50 ([10]; HT-29, read-out: IC50, viability) was 12.7 µM, the viability at 30 µM ([10]; HT-29, read-out: cell viability) was 30.9% and the “Test/Control (%)” value ([11]; 2.3 μg/ml) was 103%. For the same molecule, the Test/Control activity class ([11]; 2.3 μg/ml) was “− (− (T/C = 50))”, the “Test/Control (%)” value ([11]; 7.5 μg/ml) was 3% and the Test/Control activity class ([11]; 7.5 μg/ml) was “+++ (+++ (T/C < 10))”. The “Test/Control (%)” value ([11]; 23. μg/ml) was 2%, the Test/Control activity class ([11]; 23. μg/ml) was “+++ (+++ (T/C < 10))” and the “Test/Control (%)” value ([11]; 75. μg/ml) was 3%. For the same molecule, the Test/Control activity class ([11]; 75. μg/ml) was “+++ (+++ (T/C < 10))”, the “Test/Control (%)” value ([11]; .75 μg/ml) was 102% and the Test/Control activity class ([11]; .75 μg/ml) was “− (− (T/C = 50))”. For the same molecule, the “Test/Control (%)” value ([12]; 2.3 μg/ml) was 94%, the Test/Control activity class ([12]; 2.3 μg/ml) was “− (− (T/C = 50))” and the “Test/Control (%)” value ([12]; 7.5 μg/ml) was 6%. The Test/Control activity class ([12]; 7.5 μg/ml) was “+++ (+++ (T/C < 10))”, the “Test/Control (%)” value ([12]; 23. μg/ml) was 3% and the Test/Control activity class ([12]; 23. μg/ml) was “+++ (+++ (T/C < 10))”. The “Test/Control (%)” value ([12]; 75. μg/ml) was 2%, the Test/Control activity class ([12]; 75. μg/ml) was “+++ (+++ (T/C < 10))” and the “Test/Control (%)” value ([12]; .75 μg/ml) was 100%. The Test/Control activity class ([12]; .75 μg/ml) was “− (− (T/C = 50))”, the caspase-3 activity [13] was “dose dependent increase in the activity of caspase-3” and the “Test/Control (%)” value ([14]; 2.3 μg/ml) was 102%. For the same molecule, the Test/Control activity class ([14]; 2.3 μg/ml) was “− (− (T/C = 50))”, the “Test/Control (%)” value ([14]; 7.5 μg/ml) was 97% and the Test/Control activity class ([14]; 7.5 μg/ml) was “− (− (T/C = 50))”. For the same molecule, the “Test/Control (%)” value ([14]; 23. μg/ml) was 4%, the Test/Control activity class ([14]; 23. μg/ml) was “+++ (+++ (T/C < 10))” and the “Test/Control (%)” value ([14]; 75. μg/ml) was 3%. The Test/Control activity class ([14]; 75. μg/ml) was “+++ (+++ (T/C < 10))”, the “Test/Control (%)” value ([14]; .75 μg/ml) was 112% and the Test/Control activity class ([14]; .75 μg/ml) was “− (− (T/C = 50))”.
